Assay results published in patent US20170066717A1, “NEW PHENYLAZETIDINECARBOXYLATE OR -CARBOXAMIDE COMPOUNDS” (INVENTIVA, priority 2014, published 2017).

Assays:
NURR-1/RXRγ = target: T1, NURR-1/RXRγ (Homo sapiens, UniProt P48443); test: Transactivation test, NURR-1-Gal4/RXRγ, luciferase reporter in Cos-7 cells; assay type: cell-based; conditions: for Emax: COS-7, induction level relative to reference XCT0135908 at 2×10^−5 M (=100%), read-out: hNurr1_RXRgFL Emax (%); for EC50: Cos-7 cells, NURR-1-Gal4/RXRγ, luciferase reporter, read-out: hNurr1_RXRgFL EC50
T1 construct: expressed in transfected cells; host or cells: Cos-7 cells
T1 sequence (P48443 whole entry, the tested form may be a part): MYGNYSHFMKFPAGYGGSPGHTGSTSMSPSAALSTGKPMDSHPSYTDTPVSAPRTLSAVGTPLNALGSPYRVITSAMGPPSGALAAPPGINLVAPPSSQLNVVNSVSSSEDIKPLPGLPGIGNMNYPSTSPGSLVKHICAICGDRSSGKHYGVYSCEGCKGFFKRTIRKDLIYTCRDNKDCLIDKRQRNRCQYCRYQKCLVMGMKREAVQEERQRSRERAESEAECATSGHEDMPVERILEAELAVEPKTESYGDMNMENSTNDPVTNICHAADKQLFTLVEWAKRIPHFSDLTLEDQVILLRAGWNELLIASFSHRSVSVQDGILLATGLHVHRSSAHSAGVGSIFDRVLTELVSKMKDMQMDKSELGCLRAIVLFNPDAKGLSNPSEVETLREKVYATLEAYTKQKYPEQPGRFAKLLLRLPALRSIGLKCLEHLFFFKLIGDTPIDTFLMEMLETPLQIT
T1 sequence (P43354 whole entry partner, the tested form may be a part): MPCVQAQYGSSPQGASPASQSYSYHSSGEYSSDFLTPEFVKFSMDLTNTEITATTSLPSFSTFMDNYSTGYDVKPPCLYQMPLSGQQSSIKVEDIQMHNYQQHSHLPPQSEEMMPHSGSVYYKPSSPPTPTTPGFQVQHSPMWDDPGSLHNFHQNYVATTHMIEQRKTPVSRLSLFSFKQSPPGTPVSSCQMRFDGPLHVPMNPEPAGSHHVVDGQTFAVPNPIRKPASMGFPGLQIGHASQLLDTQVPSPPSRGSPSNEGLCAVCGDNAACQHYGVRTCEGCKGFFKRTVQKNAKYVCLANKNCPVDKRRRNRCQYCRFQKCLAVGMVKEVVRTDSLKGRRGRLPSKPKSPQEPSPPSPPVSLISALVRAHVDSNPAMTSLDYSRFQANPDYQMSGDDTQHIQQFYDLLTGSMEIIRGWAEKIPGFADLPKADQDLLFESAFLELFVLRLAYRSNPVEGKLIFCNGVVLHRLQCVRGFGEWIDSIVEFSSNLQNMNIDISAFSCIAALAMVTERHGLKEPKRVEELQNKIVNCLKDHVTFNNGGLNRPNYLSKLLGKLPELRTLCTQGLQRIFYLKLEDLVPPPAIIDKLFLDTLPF
T1 sequence (P04386 1-147 partner limits assumed): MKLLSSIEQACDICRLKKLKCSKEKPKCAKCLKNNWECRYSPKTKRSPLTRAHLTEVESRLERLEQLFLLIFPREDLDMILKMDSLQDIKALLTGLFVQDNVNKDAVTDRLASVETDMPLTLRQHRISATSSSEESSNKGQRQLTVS

NURR-1/RXRα = target: T2, NURR-1/RXRα (Homo sapiens, UniProt P19793); test: Transactivation test, NURR-1-Gal4/RXRα, luciferase reporter in Cos-7 cells; assay type: cell-based; conditions: for Emax: COS-7, induction level relative to reference XCT0135908 at 2×10^−5 M (=100%), read-out: hNurr1_RXRaFL Emax (%); for EC50: Cos-7 cells, NURR-1-Gal4/RXRα, luciferase reporter, read-out: hNurr1_RXRaFL EC50
T2 construct: expressed in transfected cells; host or cells: Cos-7 cells
T2 sequence (P19793 whole entry, the tested form may be a part): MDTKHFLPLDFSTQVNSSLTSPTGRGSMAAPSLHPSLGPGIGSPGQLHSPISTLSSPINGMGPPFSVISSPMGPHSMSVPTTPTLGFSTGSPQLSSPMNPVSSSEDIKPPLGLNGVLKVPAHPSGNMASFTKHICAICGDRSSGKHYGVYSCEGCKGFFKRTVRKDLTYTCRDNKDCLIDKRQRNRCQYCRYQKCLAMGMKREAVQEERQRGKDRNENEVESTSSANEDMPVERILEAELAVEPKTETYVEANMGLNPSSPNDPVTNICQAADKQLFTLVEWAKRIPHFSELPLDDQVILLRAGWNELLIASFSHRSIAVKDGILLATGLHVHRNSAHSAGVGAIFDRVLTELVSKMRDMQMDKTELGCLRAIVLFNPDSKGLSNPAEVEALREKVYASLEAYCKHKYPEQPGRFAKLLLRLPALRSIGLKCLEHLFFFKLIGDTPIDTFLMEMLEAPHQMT
T2 sequence (P43354 whole entry partner, the tested form may be a part): as the sequence (P43354 whole entry partner, the tested form may be a part) above
T2 sequence (P04386 1-147 partner limits assumed): as the sequence (P04386 1-147 partner limits assumed) above

Row | Emax (NURR-1/RXRγ) [%] | EC50 (NURR-1/RXRγ) [nM] | Emax (NURR-1/RXRα) [%] | EC50 (NURR-1/RXRα) [nM] | Structure (SMILES)
1 | 80 | 73 | 69 | 60 | CCCOc1ccc(C(F)(F)F)cc1-c1cccc(N2CC(C(=O)O)C2)c1 [Example 88, 1-[3-[2-propoxy-5-(trifluromethyl)phenyl]phenyl]azetidine-3-carboxylic acid]
2 | 57 | 7 | 67 | 6 | O=C(O)C1CN(c2cccc(-c3cc(C(F)(F)F)ccc3OCc3ccccc3)c2)C1 [Example 90, 1-[3-[2-benzyloxy-5-(trifluoromethyl)phenyl]phenyl]azetidine-3-carboxylic acid]
3 | 77 | 282 | 43 | 278 | O=C(O)C1CN(c2cccc(-c3cc(C(F)(F)F)ccc3OCC3CCOC3)c2)C1 (centres unmarked) [Example 91]
4 | 36 | 93 | 59 | 29 | COc1cccc(COc2ccc(C(F)(F)F)cc2-c2cccc(N3CC(C(=O)O)C3)c2)c1 [Example 92, 1-[3-[2-[(3-methoxyphenyl)methoxy]-5-(trifluoromethyl)phenyl]phenyl]azetidine-3-carboxylic acid]
5 | 42 | 31 | 58 | 33 | O=C(O)C1CN(c2cccc(-c3cc(C(F)(F)F)ccc3OCCc3ccccc3)c2)C1 [Example 93, 1-[3-[2-phenyethyloxy-5-(trifluromethyl)phenyl]phenyl]azetidine-3-carboxylic acid]
6 | 96 | 10 | 117 | 7 | O=C(O)C1CN(c2cccc(-c3cc(C(F)(F)F)ccc3OCc3cccs3)c2)C1 [Example 96]
7 | 38 | 13 | 49 | 12 | O=C(O)C1CN(c2cccc(-c3cc(C(F)(F)F)ccc3OCc3ccccc3Cl)c2)C1 [Example 97, 1-[3-[2-[(2-chlorophenyl)methyoxy]-5-(trifluoromethyl)phenyl]phenyl]azetidine-3-carboxylic acid]
8 | 51 | 19 | 56 | 17 | O=C(O)C1CN(c2cccc(-c3cc(C(F)(F)F)ccc3OCc3ccc(F)cc3)c2)C1 [Example 99, 1-[3-[2-[(4-fluorophenyl),ethoxy]-5-(trifluroomethyl)phenyl]phenyl]azetidine-3-carboxylic acid]
9 | 41 | 60 | 55 | 118 | CC(C)C(Oc1ccc(C(F)(F)F)cc1-c1cccc(N2CC(C(=O)O)C2)c1)C(C)C [Example 101, 1-[3-[2-(1-isopropyl-2-methlypropoxy)-5-(trifluoromethyl)phenyl]phenyl]azetidine-3-carboxylic acid]
10 | 94 | 125 | 97 | 159 | COCCOc1ccc(C(F)(F)F)cc1-c1cccc(N2CC(C(=O)O)C2)c1 [Example 102, 1-[3-[2-(2-methoxyethoxy)-5-(trifluoromethyl)phenyl]phenyl]azetidine-3-carboxylic acid]
11 | 36 | 13 | 40 | 13 | Cc1cc(C)cc(COc2ccc(C(F)(F)F)cc2-c2cccc(N3CC(C(=O)O)C3)c2)c1 [Example 106, 1-[3-[2-[(3,5-dimethylphenyl)methoxy]-5-(trifluoromethyl)phenyl]phenyl]azetidine-3-carboxylic acid]
12 | 48 | 30 | 48 | 19 | O=C(O)C1CN(c2cccc(-c3cc(C(F)(F)F)ccc3OCc3cccc(Cl)c3)c2)C1 [Example 107, 1-[3-[2-[(3-chlorophenyl)methyoxy]-5-(trifluoromethyl)-phenyl]phenyl]azetidine-3-carboxylic acid]
13 | 54 | 112 | 53 | 82 | Cn1ccc(COc2ccc(C(F)(F)F)cc2-c2cccc(N3CC(C(=O)O)C3)c2)n1 [Example 108, 1-[3-[2-[(1-methylpyrazol-3-yl)methoxy]-5-(trifluoromethyl)phenyl]phenyl]azetidine-3-carboxylic acid]
14 | 94 | 15 | 94 | 8 | O=C(O)C1CN(c2cccc(-c3cc(C(F)(F)F)ccc3OCc3ccsc3)c2)C1 [Example 111, 1-[3-[2-(3-thienylmethoxy)-5-(trifluoromethyl)phenyl]phenyl]azetidine-3-carboxylic acid]
15 | 136 | 9 | 125 | 3 | CC1(C)CN(c2cccc(N3CC(C(=O)O)C3)c2)c2ccc(C(F)(F)F)cc2O1 [Example 112, 1-[3-[2,2-dimethyl-7-(trifluoromethyl)-3H-1,4,benzoxazin-4-yl]phenyl]azetidine-3-carboxylic acid]
16 | 133 | 13 | 122 | 12 | O=C(O)C1CN(c2cccc(N3C(=O)C4(CCC4)Oc4cc(C(F)(F)F)ccc43)c2)C1 [Example 121, 1-[3-[3-oxo-7-(trifluromethyl)spiro[3H1,4-benzoxazine-2,1′-cyclobutane]-4yl]phenyl]azetidine-3-carboxylic acid]
17 | 113 | 3 | 117 | 4 | O=C(O)C1CN(c2cccc(-n3cc(CC4CCCC4)c4cc(C(F)(F)F)ccc43)c2)C1 [Example 127, 1-[3-[3-(cyclopentylmethyl)-5-(trifluoromethyl)indol-1-yl]phenyl]azetidine-3-carboxylic acid]
18 | 88 | 10 | 90 | 7 | O=C(O)C1CN(c2cccc(-n3cc(CC4CCOCC4)c4cc(C(F)(F)F)ccc43)c2)C1 [Example 129, 1-[3-[3-(tetrahydropyran-4-ylmethyl)-5-(trifluoromethyl)indol-1-yl]phenyl]azetidine-3-carboxylic acid]
19 | 85 | 2090 | 82 | 995 | CNS(=O)(=O)c1cn(-c2cccc(N3CC(C(=O)O)C3)c2)c2ccc(C(F)(F)F)cc12 [Example 137]
20 | 122 | 10 | 115 | 7 | O=C(O)C1CN(c2cccc(N3CC4(CCCC4)c4cc(C(F)(F)F)ccc43)c2)C1 [Example 139, 1-[3-[5′-(trifluoromethyl)spiro[cyclopentane-1,3′-indoline]-1′-yl]phenyl]azetidine-3-carboxylic acid]

Row | Structure (SMILES) | Emax (NURR-1/RXRγ) [%] | EC50 (NURR-1/RXRγ) [nM] | Emax (NURR-1/RXRα) [%] | EC50 (NURR-1/RXRα) [nM]
21 | CCCCOc1ccc(C(F)(F)F)cc1-c1cccc(N2CC(C(=O)O)C2)c1 [Example 89] | 64 | 21 | 61 | 23
22 | CCC(CC)COc1ccc(C(F)(F)F)cc1-c1cccc(N2CC(C(=O)O)C2)c1 [Example 103, 1-[3-[2-(2-ethylbutoxy)-5-(trifluoromethyl)phenyl]phenyl]azetidine-3-carboxylic acid] | 58 | 17 | 62 | 16
23 | CCC(C)Oc1ccc(C(F)(F)F)cc1-c1cccc(N2CC(C(=O)O)C2)c1 (centres unmarked) [Example 105, 1-[3-[2-sec-butoxy-5-(trifluoromethyl)phenyl]phenyl]azetidine-3-carboxylic acid] | 55 | 19 | 56 | 10
